Experimental data taken from patent US10982100B2, “Slippery liquid-infused porous surfaces and biological applications thereof” (President and Fellows of Harvard College, priority 2011, dated 2021).

Experiments:
[1] = Surface tension of polar and non-polar liquids; assay type: physicochemical
Description: Fluid-fluid interfacial tension can be measured by many well-established techniques, such as the Wilhelmy plate method, the Du Noüy ring method, and the pendant drop method (e.g., see Drelich et al., in Encyclopedia of Surface and Colloid Science, pp. 3152-3166, Marcel Dekker Inc, 2002, the contents of which is incorporated by reference herein in its entirety). Among all of the techniques, the pendant drop method is among the most popular and versatile technique, which can be easily extended to a two-liquid system. The pendant drop method measures the shape of a fluid-fluid interface and quantifies the shape distortion due to the competition between the fluid-fluid interfacial tension and gravity. In practice, a drop of denser fluid (e.g., Object A) is suspended by a syringe needle in medium X (i.e., air/water/the lubricating fluid). Owing to the influence of gravity, the denser liquid droplet will be deformed as the liquid volume increases. The shape profile of the liquid droplet is captured by an optical system and subsequently analyzed by a computer software when the liquid volume is increased to the maximum possible size (i.e., before the liquid drop is detached from the syringe needle). The interfacial tension of the fluid-fluid interface, γ, can then be deduced from the formula, γ=ΔρgD^2/H, where Δρ is the density difference between the two immiscible fluids, g is gravity, D is equatorial diameter of the liquid droplet, and H is drop shape dependent parameters which is a function of the shape profile of the droplet.

[2] = Stable lubricating film for solid-Liquid A-Liquid B combinations, theory versus experiment; assay type: physicochemical; set-up: key: “Y” indicates that Liquid B forms a stable lubricating film, and is not displaced by Object A; “N” indicates that Liquid B is displaced by Object A; conditions: label = Liquid A
Description: When the relationship holds, the lubricating liquid will stay in intimate contact with the porous solid without being displaced by Liquid A. Note that the equilibrium contact angles were estimated from the average values of the advancing and receding contact angles of Liquid A and the lubricating liquid on the flat solid surface. Satisfying the relationship can help promote the operation stability of the slippery surface where the liquid layer is substantially completely covered by the test liquid (i.e., two-phase environments that involve a single fluid interface between the test liquid and the liquid layer) and where the liquid layer contacts a droplet of the test fluid as well as air (i.e., three-phase environments that involve three fluid interfaces of (i) test liquid-liquid layer, (ii) test liquid-air, and (iii) liquid layer-air). […] Notice that γA and γB are equivalent to γAX and γBX defined in the text, and medium X is air specifically in this context. Variable γAB represents the interfacial tension for Object A-Liquid B interface. […] M., Ind. Eng. Chem. 56, 40-42, 1964; Israelachvili, J. N. Intermolecular and Surface Forces, Academic Press, 2011). The dispersion force contribution of water surface tension […]., Ind. Eng. Chem. 56, 40-42, 1964). S. Epoxy represents silanized epoxy resin substrate.

[3] = Contact angles of various liquids on flat solids; assay type: physicochemical; set-up: unit not given here
Experimental: The behavior of liquids on surfaces is described by an equilibrium contact angle. An equilibrium contact angle, θ, is the angle at which a liquid/vapor interface meets a solid surface, which is determined by the interactions across the three interfaces, e.g., solid/liquid/vapor. […] The upper limit is known as the apparent advancing contact angle (θA), whereas the lower limit is referred as the apparent receding contact angle (θR). The difference between these values is known as contact angle hysteresis (i.e., Δθ=θA−θR, where θA≥θ≥θR), which characterizes the liquid repellency of a surface. Conventionally, equilibrium contact angle can be roughly estimated by the average of the advancing and receding angles (i.e., θ=(θA+θR)/2), or by a static contact angle, θstatic (i.e., θ=θstatic).
In practice, contact angle measurement can be performed by a number of different well-established techniques, such as the sessile drop method and the Wilhelmy method. In particular, the sessile drop method is among the most popular technique for contact angle measurement. In this technique, a liquid droplet is deposited on a targeted solid surface, where the liquid profile is captured by an optical system of a goniometer and geometrically fitted to obtain the contact angle. The contact angle measured from a static liquid droplet deposited on the surface is known as the static contact angle, θstatic. Using the same system, advancing contact angle, θA, can be measured while the volume of the drop is increasing until the wetting line starts to advance. Receding contact angle, θR, can be measured by decreasing the volume of the drop and determining the contact angle just before the wetting line recedes. Alternatively, the advancing and the receding angles of the liquid drop can also be determined by gradually tilting the solid surface until the liquid drop starts to move.

P. aeruginosa = conditions: 1% and 0.1% concentrations; 3, 6, 9, and 30 hours; 550 nm
[4] = Solid Epoxy, Liquid B FC-70, R 1
[5] = Solid Epoxy, Liquid B FC-70, R 2
[6] = Solid S. Epoxy (silanized epoxy resin), Liquid B FC-70, R 2
[7] = Solid Silicon, Liquid B H2O, R 1
[8] = flat solid S. (silanized epoxy)

Compound	Surface Tension [1]	Stable Film? Exp. [2, 5]	Stable Film? Theory [2, 5]	Stable Film? Exp. [2, 6]	Stable Film? Theory [2, 6]	Stable Film? Exp. [2, 7]	Stable Film? Theory [2, 7]	Measured contact angle θadv ([3]; flat solid Epoxy)	Measured contact angle θrec ([3]; flat solid Epoxy)	Measured contact angle θstatic ([3]; flat solid Epoxy)	Measured contact angle θadv [3, 8]	Measured contact angle θrec [3, 8]	Measured contact angle θstatic [3, 8]	Measured contact angle θadv ([3]; flat solid Silicon)	Measured contact angle θrec ([3]; flat solid Silicon)	Measured contact angle θstatic ([3]; flat solid Silicon)	other results
CCCCCCCCCC [Decane]	23.6 ± 0.1 mN/m	N	N	Y	Y	N	N	15.0 ± 1.6	13.7 ± 0.9	14.2 ± 0.7	66.0 ± 4.1	38.5 ± 0.7	60.0 ± 2.8	7.9 ± 1.0	~0.0	<5.0	Stable Film? Exp. [2, 4]: N; Stable Film? Theory [2, 4]: N
CCCCCCCCCCCC [Dodecane]	25.3 ± 0.1 mN/m	–	–	–	–	–	–	–	–	–	–	–	–	–	–	–	–
OCCO [Ethylene Glycol]	48.1 ± 0.3 mN/m	–	–	–	–	–	–	–	–	–	–	–	–	–	–	–	–
OCC(O)CO [Glycerol]	60.3 ± 1.1 mN/m	–	–	–	–	–	–	–	–	–	–	–	–	–	–	–	–
CCCCCCC [Heptane]	19.9 ± 0.3 mN/m	–	–	–	–	–	–	–	–	–	–	–	–	–	–	–	–
CCCCCCCCCCCCCCCC [Hexadecane]	27.2 ± 0.2 mN/m	N	N	Y	Y	N	N	32.8 ± 1.4	25.7 ± 0.9	30.6 ± 0.4	76.3 ± 1.4	50.0 ± 3.9	70.5 ± 2.0	17.3 ± 1.6	~0.0	5.6 ± 1.1	Stable Film? Exp. [2, 4]: N; Stable Film? Theory [2, 4]: Y/N
CCCCCC [Hexane]	18.6 ± 0.5 mN/m	N	N	Y	Y	N	Y/N	~0.0	~0.0	~0.0	52.5 ± 0.3	22.8 ± 1.7	40.1 ± 4.2	<5.0	~0.0	<5.0	–
CCCCCCCCC [Nonane]	22.6 ± 0.2 mN/m	–	–	–	–	–	–	–	–	–	–	–	–	–	–	–	–
CCCCCCCC [Octane]	21.4 ± 0.2 mN/m	N	N	Y	Y	N	N	9.7 ± 1.2	6.1 ± 0.2	7.9 ± 0.7	57.7 ± 2.5	23.8 ± 4.0	50.7 ± 3.0	<5.0	~0.0	<5.0	–
CCCCC [Pentane]	17.2 ± 0.5 mN/m	N	N	Y	Y	N	Y/N	~0.0	~0.0	~0.0	36.4 ± 2.5	17.0 ± 1.8	30.8 ± 3.1	<5.0	~0.0	<5.0	–
CCCCCCCCCCCCC [Tridecane]	25.9 ± 0.1 mN/m	N	N	Y	Y	–	–	28.3 ± 1.1	25.4 ± 0.7	26.9 ± 1.7	72.8 ± 0.2	48.1 ± 3.1	63.5 ± 2.8	–	–	–	Stable Film? Exp. [2, 4]: N; Stable Film? Theory [2, 4]: Y/N
CCCCCCCCCCC [Undecane]	24.6 ± 0.2 mN/m	–	–	–	–	–	–	–	–	–	–	–	–	–	–	–	–
O [Water]	72.4 ± 0.1 mN/m	Y	Y/N	Y	Y	–	–	100.3 ± 3.1	67.0 ± 4.5	92.6 ± 1.8	118.9 ± 1.7	90.8 ± 0.9	113.1 ± 2.8	14.4 ± 2.7	~0.0	13.1 ± 1.7	Stable Film? Exp. [2, 4]: N; Stable Film? Theory [2, 4]: Y/N; Stable Film? Exp. ([2]; Solid PDMS, Liquid B PDMS, R 1): Y; Stable Film? Theory ([2]; Solid PDMS, Liquid B PDMS, R 1): Y; Stable Film? Exp. ([2]; Solid PP, Liquid B PDMS, R 1): Y; Stable Film? Theory ([2]; Solid PP, Liquid B PDMS, R 1): Y; Stable Film? Exp. ([2]; Solid PP, Liquid B PDMS, R 2): Y; Stable Film? Theory ([2]; Solid PP, Liquid B PDMS, R 2): Y; Stable Film? Exp. ([2]; Solid PTFE, Liquid B PDMS, R 2): Y; Stable Film? Theory ([2]; Solid PTFE, Liquid B PDMS, R 2): Y
O=CCCCC=O [glutaraldehyde, reference compound]	–	–	–	–	–	–	–	–	–	–	–	–	–	–	–	–	bacterial growth (optical densities) compared to control culture (P. aeruginosa): massive toxicity
